One test has as its target CDK7/CycH/MNAT1 (Homo sapiens (Human), UniProt P50613). The experiment in a line: Biochemical assay for CDK7 (TR-FRET kinase assay). As to conditions: 60 min pre-incubation, 1 mM ATP; for inhibition at 10 µM: 10 μM compound, read-out: % inhibition @ 10 μM; for IC50: read-out: IC50. The essentials:
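CDK7/CycH/MNAT1 (5 nM) was preincubated with compound for 60 min at room temperature, then reacted for 60 min with 100 nM ULight-MBP and 1 mM ATP in 1% DMSO. Irreversibility was probed with 20, 60 and 180 min preincubations.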
(Time-resolved FRET reads energy transfer from a long-lived donor to a nearby acceptor.)

For test [1], the system named is RNA polymerase II CTD phosphorylation (MDA-MB-231/NCI-H358 cells). The experiment in a line: Inhibition of RNA polymerase II CTD phosphorylation in cell western assay. The settings on record: 4 hours incubation, phospho RNA Pol II Ser-5 or Ser-2. The format is cell-based. A digest of the protocol: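 MDA-MB-231 or NCI-H358 cells treated 4 h at 37 °C with 3-fold dilutions from 10 μM, then fixed and immunostained for phospho-Ser5 or phospho-Ser2 RNA Pol II CTD. Europium-labelled secondaries give the time-resolved fluorescence read-out, normalised to Hoechst; EC50 reported in binned ranges.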

CDK7/CycH/MNAT1, sequence (P50613 whole entry): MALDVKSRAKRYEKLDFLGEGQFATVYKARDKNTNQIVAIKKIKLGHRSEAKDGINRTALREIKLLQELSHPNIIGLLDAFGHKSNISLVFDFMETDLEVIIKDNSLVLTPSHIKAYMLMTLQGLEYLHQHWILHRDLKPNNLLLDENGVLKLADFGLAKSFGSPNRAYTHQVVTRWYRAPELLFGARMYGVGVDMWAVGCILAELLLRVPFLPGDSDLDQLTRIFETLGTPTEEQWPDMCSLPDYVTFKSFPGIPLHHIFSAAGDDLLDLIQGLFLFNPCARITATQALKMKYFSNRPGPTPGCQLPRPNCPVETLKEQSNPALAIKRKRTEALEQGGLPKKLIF
CDK7/CycH/MNAT1, sequence (P51946 whole entry partner): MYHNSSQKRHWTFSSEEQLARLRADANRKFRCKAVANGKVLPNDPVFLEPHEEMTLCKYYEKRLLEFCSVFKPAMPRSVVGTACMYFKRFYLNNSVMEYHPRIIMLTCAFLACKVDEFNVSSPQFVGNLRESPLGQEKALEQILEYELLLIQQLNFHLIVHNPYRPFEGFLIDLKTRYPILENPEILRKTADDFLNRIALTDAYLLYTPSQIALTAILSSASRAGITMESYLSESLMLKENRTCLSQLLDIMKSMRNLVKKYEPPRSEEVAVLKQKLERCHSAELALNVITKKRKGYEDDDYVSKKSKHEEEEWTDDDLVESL
CDK7/CycH/MNAT1, sequence (P51948 whole entry partner): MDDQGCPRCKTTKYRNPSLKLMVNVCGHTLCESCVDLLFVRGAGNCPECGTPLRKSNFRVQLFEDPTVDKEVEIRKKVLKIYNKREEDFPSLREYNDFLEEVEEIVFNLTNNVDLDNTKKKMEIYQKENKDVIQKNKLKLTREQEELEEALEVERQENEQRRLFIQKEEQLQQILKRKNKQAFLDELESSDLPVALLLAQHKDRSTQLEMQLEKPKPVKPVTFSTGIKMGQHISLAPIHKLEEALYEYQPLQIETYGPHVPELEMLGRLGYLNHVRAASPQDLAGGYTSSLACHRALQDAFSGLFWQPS

As for `C=CC(=O)N1CCC(NC(=O)c2cccc(Nc3nc(OC4CCN(C)CC4)nc4c(C(C)C)cnn34)c2)CC1` [Compound 128, N-(1-acryloylpiperidin-4-yl)-3-((8-isopropyl-2-((1-methylpiperidin-4-yl)oxy)pyrazolo[1,5-a][1,3,5]triazin-4-yl)amino)benzamide], on CDK7/CycH/MNAT1, the inhibition (commonly the drop in the measured response relative to a control, in per cent) at 10 µM was determined as 93% and the IC50 (as a rule, the point on the concentration scale where inhibition reaches its midpoint) was < 300 nM. Besides, the concentration for a half-maximal effect (EC50) (commonly the concentration at which the effect is half-maximal) in test [1] lay in the range of 1 to 10 µM.
Regarding `C=CC(=O)N1CCCC(NC(=O)c2cccc(Nc3nc(OC4CCN(C)CC4)nc4c(C(C)C)cnn34)c2)C1` (stereo not drawn) [Compound 129, N-(1-acryloylpiperidin-3-yl)-3-((8-isopropyl-2-((1-methylpiperidin-4-yl)oxy)pyrazolo[1,5-a][1,3,5]triazin-4-yl)amino)benzamide], at CDK7/CycH/MNAT1, the inhibition at 10 µM is 94% and the IC50 is < 300 nM. Also, the EC50 in test [1] is 1 to 10 µM.
On to `CC(C)c1cnn2c(Nc3cccc(NC(=O)C4CCC(NC(=O)/C=C/CN(C)C)CC4)c3)nc(OC3CCN(C)CC3)nc12` (stereo not drawn) [Compound 131, (1s,4s)-4-((E)-4-(dimethylamino)but-2-enamido)-N-(3-((8-isopropyl-2-((1-methylpiperidin-4-yl)oxy)pyrazolo[1,5-a][1,3,5]triazin-4-yl)amino)phenyl)cyclohexane-1-carboxamide], for which, on CDK7/CycH/MNAT1, the inhibition at 10 µM was found to be 86% and the IC50 lay within 300 to 1000 nM. For the same compound, the 50% effective concentration (EC50) in test [1] was > 10 µM.
Take `CC(C)c1cnn2c(Nc3cccc(NC(=O)[C@H]4CC[C@H](NC(=O)/C=C/CN(C)C)CC4)c3)nc(OC3CCN(C)CC3)nc12` [Compound 132, (1,4-Trans)-4-((E)-4-(dimethylamino)but-2-enamido)-N-(3-((8-isopropyl-2-((1-methylpiperidin-4-yl)oxy)pyrazolo[1,5-a][1,3,5]triazin-4-yl)amino)phenyl)cyclohexane-1-carboxamide]: on CDK7/CycH/MNAT1, the inhibition at 10 µM turned out to be 90% and the 50% inhibitory concentration (IC50) is < 300 nM. Further, the 50% effective concentration (EC50) in test [1] is > 10 µM.
As to `CC(C)c1cnn2c(Nc3cccc(C(=O)NC4CCN(C(=O)/C=C/CN(C)C)CC4)c3)nc(OC3CCN(C)CC3)nc12` [Compound 134, (E)-N-(1-(4-(dimethylamino)but-2-enoyl)piperidin-4-yl)-3-((8-isopropyl-2-((1-methylpiperidin-4-yl)oxy)pyrazolo[1,5-a][1,3,5]triazin-4-yl)amino)benzamide], on CDK7/CycH/MNAT1, the inhibition at 10 µM was found to be 97% and the half-inhibitory concentration (IC50) was < 300 nM. This compound gave an EC50 in test [1] of 1 to 10 µM.

The record behind these values is patent US11186576B2, “Pyrazolo[1,5-A][1,3,5]triazine and pyrazolo[1,5-A]pyrimidine derivatives as CDK inhibitors” (Aurigene Discovery Technologies Limited, priority 2015, dated 2021).
